{
  "source": "patent US20240156785A1",
  "about": "“COMPOSITION FOR IMPROVING BLOOD CHOLESTEROL LEVEL” (SUNTORY HOLDINGS LIMITED, priority 2021, published 2024)",
  "key": {"[1]": {"tested_on": "HDL cholesterol and LDL cholesterol in the blood", "assay": "Blood cholesterol evaluation study on human (placebo-controlled, randomized, double-blind, parallel-group)", "type": "in vivo", "details": "human adults, one capsule (20 mg L-ergothioneine) per day orally for four weeks, week 4 vs pre-testing, compared with control food group", "experimental": "In order to evaluate the influence of supplements containing ergothioneine on human blood cholesterol levels, a placebo-controlled, randomized, double-blind, parallel-group study was conducted on subjects including male and female adults (46 subjects in a test food group; 46 subjects in a control food group; 92 subjects in total). In this study, one capsule containing 20 mg ergothioneine (test food) or one capsule not containing ergothioneine (control food) was fed per day for four weeks. The blood cholesterol levels of the subjects were measured for pre-testing before starting the study (before starting ingestion of the test food or control food). After ingestion of the test food or control food for four weeks, the blood cholesterol levels of the subjects were measured again (testing on week 4). The cholesterol measured includes HDL cholesterol and LDL cholesterol. […] The ratio of LDL cholesterol level to HDL cholesterol level (LDL/HDL ratio) in the blood was determined for each subject from the measurements (mg/dL) of HDL cholesterol and LDL cholesterol. […] For each group, the amount of changes in LDL/HDL ratio (Δ in LDL/HDL ratio) from the time of pre-testing was determined by subtracting the LDL/HDL ratio at the time of pre-testing from the LDL/HDL ratio at the time of testing on week 4 ((LDL/HDL ratio at the time of testing on week 4)—(LDL/HDL ratio at the time of pre-testing)). […]"}, "[2]": {"tested_on": "triglyceride (neutral fat) level in plasma", "details": "mice, oral administration, compared with mice not orally administered with ergothioneine; cited from earlier work"}},
  "data": [
    {"smiles": "C[N+](C)(C)[C@@H](Cc1c[nH]c(=S)[nH]1)C(=O)[O-]", "note": "[L-ergothioneine]", "values": [
      {"measurement": "changes in HDL cholesterol level (Δ in HDL cholesterol) in the blood", "setting": "[1]", "result": "increased"},
      {"measurement": "changes in LDL/HDL ratio (Δ in LDL/HDL ratio) in the blood", "setting": "[1]", "result": "reduced"},
      {"measurement": "triglyceride (neutral fat) level in plasma", "setting": "[2]", "result": "lower"}
    ]}
  ]
}
